No end group written: not given here.
Experiments:
[1] = Computationally predicted from Kunitz inhibitor protein; ref [21]; cited from earlier work
Excerpt: Table 4 Reported AMPs from Schistosoma mansoni. | column: Activity reported

E. faecalis JH2-2 = assay: microbe, parasite or virus in culture; assay type: cell-based, Enterococcus faecalis
Method: (§1) Prioritised helminth AMP-LPs were synthesised at >70% purity (Genosphere Biotechnologies). […] Peptides and control antibiotics [Ciprofloxacin (for gram-negative species; Sigma-Aldrich) and Vancomycin hydrochloride (for gram-positive species; Sigma-Aldrich)] were dissolved in sterile ultrapure water at a concentration of 5.12mg/ml. Minimum inhibitory concentrations (MICs) were determined for gram-positive and gram-negative bacterial isolates (see Table 3 for species) using microbroth dilution assays as described previously. Briefly, a single colony from each bacterial species was inoculated in cation-adjusted Mueller Hinton Broth (MHB) and grown for 18–24 hours at 37°C with shaking (225rpm) before being adjusted to a final bacterial density of 5x10^5 colony forming units (CFU) per ml. Peptides and Vancomycin hydrochloride were diluted using sterile MHB in sterile U-bottom 96 well polypropylene microplates (Greiner Bio One, UK) to give a concentration gradient ranging from 512–0.25μg/ml. Ciprofloxacin was further diluted in sterile MHB to give a concentration gradient ranging from 32–0.02μg/ml. Microplates were incubated at 37°C for 18–24 hours. Plates were assessed for visible growth and the MIC was defined as the lowest concentration of peptide or antibiotic that inhibited visible growth of a bacterial culture after an 18–24-hour incubation. MIC data were validated by positive and negative control antibiotic MIC data for each bacterial isolate.

[2] = system: gram-positive and gram-negative bacterial isolates; assay type: cell-based
Method: as §1, with “MIC data were validated by positive and negative control antibiotic MIC data for each bacterial isolate.” left out

E. coli K12 = assay: Minimum inhibitory concentration, microbroth dilution; assay type: cell-based, Escherichia coli; details: cation-adjusted MHB, 5x10^5 CFU/ml, 37°C, 18–24 h, visible growth; for MIC E. coli K12 (-): peptides 512–0.25μg/ml, >70% purity (Cecropin P1 >95%), Ciprofloxacin 32–0.02μg/ml
Method: as §1

A. baumannii DSM 30007 = assay: as above; assay type: cell-based, Acinetobacter baumannii; details: cation-adjusted MHB, 5x10^5 CFU/ml, 37°C, 18–24 h, visible growth; for MIC A. baumannii DSM 30007 (-): peptides 512–0.25μg/ml, >70% purity (Cecropin P1 >95%), Ciprofloxacin 32–0.02μg/ml
Method: as §1

P. aeruginosa PA01 = assay: as above; assay type: cell-based, Pseudomonas aeruginosa; details: cation-adjusted MHB, 5x10^5 CFU/ml, 37°C, 18–24 h, visible growth; for MIC P. aeruginosa PA01 (-): peptides 512–0.25μg/ml, >70% purity (Cecropin P1 >95%), Ciprofloxacin 32–0.02μg/ml
Method: as §1

S. aureus EMRSA-15 = assay: microbe, parasite or virus in culture; assay type: cell-based, Staphylococcus aureus; details: Methicillin-resistant; microbroth dilution, cation-adjusted MHB, 5x10^5 CFU/ml, 37°C, 18–24 h, visible growth; peptides and Vancomycin hydrochloride 512–0.25μg/ml; peptides >70% purity (Cecropin P1 >95%)
Method: as §1

S. aureus RN4220 = assay: microbe, parasite or virus in culture; assay type: cell-based, Staphylococcus aureus; details: Methicillin-Sensitive; microbroth dilution, cation-adjusted MHB, 5x10^5 CFU/ml, 37°C, 18–24 h, visible growth; peptides and Vancomycin hydrochloride 512–0.25μg/ml; peptides >70% purity (Cecropin P1 >95%)
Method: as §1

[3] = microbroth dilution, cation-adjusted MHB, 5x10^5 CFU/ml, 37°C, 18–24 h, visible growth, peptides and Vancomycin hydrochloride 512–0.25μg/ml, peptides >70% purity (Cecropin P1 >95%)

Substance	MIC E. coli K12 (-) (E. coli K12)	MIC A. baumannii DSM 30007 (-) (A. baumannii DSM 30007)	MIC P. aeruginosa PA01 (-) (P. aeruginosa PA01)	MIC S. aureus EMRSA-15 (+) (S. aureus EMRSA-15)	MIC S. aureus RN4220 (+) (S. aureus RN4220)	MIC E. faecalis JH2-2 (+) (E. faecalis JH2-2; [3])	also measured
GILDIKNKVSNLF [Schistocin-3]							Activity reported [1]: Antibacterial Antifungal
GFGKWVKKKWGSVRKGASKLVKGVKKVFPKKGIPIIRYERRF [nAMP-LP-249]							MIC E. faecalis JH2-2 (+) (E. faecalis JH2-2; JH2-2): 16 µg/mL; MIC against gram-negative species screened [2]: 8 µg/mL
GLGKSLKKIGRKIDKGFRKIRDRAGASVSFGSGQKPQGSIQISPV-NH2 [nAMP-LP-617]	4 µg/mL	8 µg/mL	32 µg/mL	/ (/ indicates that there was no activity at the highest concentration of peptide used (512μg/ml))	/ (/ indicates that there was no activity at the highest concentration of peptide used (512μg/ml))	/ (/ indicates that there was no activity at the highest concentration of peptide used (512μg/ml))	MIC (E. coli K12; read-out: MIC E. coli K12 (-), μM in brackets): 1 µM; MIC (A. baumannii DSM 30007; read-out: MIC A. baumannii DSM 30007 (-), μM in brackets): 2 µM; MIC (P. aeruginosa PA01; read-out: MIC P. aeruginosa PA01 (-), μM in brackets): 7 µM; MIC against gram-negative species screened [2]: 4 to 32 µg/mL
GILDIKNKVSNLFKKIK [Schistocin-2]							Activity reported [1]: Antifungal
FDKNLLKKGKKSSAYEKHPISRRVLRFE [nAMP-LP-764, nematode AMP-like peptide selected for synthesis and MIC screening]	/ (/ indicates that there was no activity at the highest concentration of peptide used (512μg/ml))	/ (/ indicates that there was no activity at the highest concentration of peptide used (512μg/ml))	/ (/ indicates that there was no activity at the highest concentration of peptide used (512μg/ml))	/ (/ indicates that there was no activity at the highest concentration of peptide used (512μg/ml))	/ (/ indicates that there was no activity at the highest concentration of peptide used (512μg/ml))	/ (/ indicates that there was no activity at the highest concentration of peptide used (512μg/ml))	
AVAHVALKLATSPVGKVALNAMVPGAGTVLGVAAKHHGMVKKLVRV [nAMP-LP-224, nematode AMP-like peptide selected for synthesis and MIC screening]	/ (/ indicates that there was no activity at the highest concentration of peptide used (512μg/ml))	/ (/ indicates that there was no activity at the highest concentration of peptide used (512μg/ml))	/ (/ indicates that there was no activity at the highest concentration of peptide used (512μg/ml))	/ (/ indicates that there was no activity at the highest concentration of peptide used (512μg/ml))	/ (/ indicates that there was no activity at the highest concentration of peptide used (512μg/ml))	/ (/ indicates that there was no activity at the highest concentration of peptide used (512μg/ml))	
GKKDEGKEVVDDKAGDKKGMKKSFRRQQGWIWIYW [nAMP-LP-1231, nematode AMP-like peptide selected for synthesis and MIC screening]	/ (/ indicates that there was no activity at the highest concentration of peptide used (512μg/ml))	/ (/ indicates that there was no activity at the highest concentration of peptide used (512μg/ml))	/ (/ indicates that there was no activity at the highest concentration of peptide used (512μg/ml))	/ (/ indicates that there was no activity at the highest concentration of peptide used (512μg/ml))	/ (/ indicates that there was no activity at the highest concentration of peptide used (512μg/ml))	/ (/ indicates that there was no activity at the highest concentration of peptide used (512μg/ml))	
GILDIKNKVSNLFKKIKGEK [Schistocin-1]							Activity reported (all activity) [1]: All activity >100μM

From PMC10414684, “Novel integrated computational AMP discovery approaches highlight diversity in the helminth AMP repertoire” (PLOS Pathogens, 2023)
